# “Also recorded” adds a separate entry of the source.
# What was measured:
# [1] = system: experimental autoimmune encephalomyelitis (EAE); assay: Active EAE, 2×MOG35-55+CFA, clinical course (Example 1/2); format: in vivo, C57BL/6J (B6) mice; conditions: for Clinical EAE course: daily treatment from D0, 5 mg/kg/d IP
# Protocol: EAE was induced in female C57BL/6J mice as described previously (Noubade et al., 2007, J Clin Invest., 117(11):3507-3518). Mice were injected subcutaneously with an emulsion containing 200 μg of MOG35-55 peptide ([…] (SEQ ID NO: 1) and complete Freund adjuvant (CFA; Sigma-Aldrich) supplemented with 200 μg of Mycobacterium tuberculosis H37RA (Difco Laboratories) in the posterior right and left flank; 1 week later, all mice were similarly injected at 2 sites on the right and left flank anterior of the initial injection sites (2×MOG35-55+CFA). Mice received 5 mg/kg/d SB203580 dihydrochloride (Tocris) by IP injection in a total volume of 200 μL or an equal volume of carrier every day from the day of immunization.
# EAE was induced in B10.BR, MKK6-Tg, and dn-p38-Tg mice by immunizing with a single injection of 200 μg of MOG97-114 (TCFFRDHSYQEEAAVELK (SEQ ID NO: 2)) or PLP180-209 ([…] (SEQ ID NO: 3)) in CFA. Immediately thereafter, each animal received 200 ng of PTX (List Biologic Laboratories) by IV injection. Mice were scored daily starting at day 10 after injection as previously described (Noubade et al., 2007, J Clin Invest., 117(11):3507-3518). Clinical quantitative trait variables were generated as previously described (Butterfield et al., 1998, J Immunol., 161(4):1860-1867).
# Age-matched male and female C57BL/6J (B6) mice were treated with the p38 MAPK inhibitor SB203580 (SB) starting at the time of immunization for the induction of EAE with myelin oligodendrocyte glycoprotein peptide 35-55 (MOG35-55) and complete Freund's adjuvant (CFA). Clinical EAE course in male and female B6 mice immunized with 2×MOG35-55-CFA treated daily with either carrier or SB starting on D0. […] In separate experiments, Clinical EAE course in female B6 mice immunized with 2×MOG35-55-CFA and randomly selected for daily treatment with either carrier or SB upon reaching a clinical score≧1. It was observed that disease progression could also be halted in female mice if the inhibitor was administered at the first onset of clinical signs (FIG. 1B).
# TH1-mediated passive EAE = assay: Passive EAE induced by TH1 cells; format: in vivo, mice; conditions: polarized DLN cells transferred into naïve recipients, listed as SB
# Source text: FIG. 5A is a schematic that illustrates that protocol of inducing passive EAE.
# Based on this and the observation that IL-17 is not absolutely required for EAE progression (Haak, S et al., 2009, J Clin Invest 119:61-69), it is possible that SB prevents EAE by inhibiting production of additional key pathogenic factors. Further, it is shown that TH1-mediated passive EAE is prevented by inhibition of p38 MAPK (FIG. 5). In these experiments, donor animals were immunized with MOG35-55, DLN cells were isolated at D10 and cultured under polarizing conditions, and cells were transferred into naïve recipients. […] As such, complementary genomic and proteomic approaches were used to identify these factors, which in the future may provide novel druggable targets for treatment of autoimmune disease. Because such approaches typically yield a large number of potential candidates, a prioritizing/“funneling” scheme was constructed to rule out irrelevant hits in screens. In particular, the sexual dimorphism in response to SB serves as a useful discriminatory tool in this regard.
# [2] = female B6 mice, treatment from D0 stopped after 30 days
structure (smiles),measurement,setting,value
C[S+]([O-])c1ccc(-c2nc(-c3ccncc3)c(-c3ccc(F)cc3)[nH]2)cc1 (stereo not drawn) [SB203580],Clinical EAE course,[1]; female B6 mice,female-specific therapy for EAE; also recorded: ameliorated EAE
same,Clinical EAE course,"[1]; female B6 mice, listed as SB",fully prevented disease; also recorded: completely inhibits EAE
same,Disease progression (clinical EAE course),"[1]; female B6 mice, daily treatment started upon reaching clinical score ≧1",halted
same,Disease severity on readministration,"[1]; female B6 mice, re-treated from D41 thru D60",modest reduction and stabilization of their disease severity
same,EAE severity reached after discontinuing treatment,[1]; [2],equivalent severity to those seen in carrier-treated mice
same,Time to appearance of clinical signs of EAE after discontinuing treatment,[1]; [2],2 to 3 days
same,Clinical EAE course,"[1]; male B6 mice, listed as SB",completely unresponsive
same,Cytokine production / inflammatory response,TH1-mediated passive EAE,decreased cytokine production; also recorded: reduces the inflammatory response
same,EAE severity,TH1-mediated passive EAE,reduces EAE severity; also recorded: prevents passive EAE induced by TH1 cells

# Reference: US20140127231A1, “p38 MAPK Pathway Inhibitors as Female-Specific Therapeutics” (UNIVERSITY OF VERMONT, priority 2012, published 2014)
